Key:
Type in all cases: in vivo
Veronica persica [1] = assay: Test Example 4: herbicidal effect by soil treatment (symbol R)
How it was run: (§1)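 Seeds were sown in sterilized diluvial soil, covered with about 1.5 cm of soil, and the soil surface was sprayed with a water-diluted emulsion of the compound at a predetermined rate. Plants grew in a greenhouse at 25° C. to 30° C.; effects were scored visually 3 weeks after application.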

Setaria viridis = assay: Test Example 5: herbicidal effect by foliage application, plastic box (symbol G); settings: 320 g/ha, 3 weeks after application
How it was run: (§2)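 Effect is rated 3 weeks after a foliar spray of water-diluted emulsion concentrate at a predetermined herbicide amount. Plants had grown 14 days in a 25° C. to 30° C. greenhouse from seed in sterilized diluvial soil.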

Abutilon theophrasti = assay: Test Example 5: herbicidal effect by foliage application, plastic box (symbol M); settings: 320 g/ha, 3 weeks after application
How it was run: as §2

Lolium multiflorum Lam. [2] = assay: Test Example 5: herbicidal effect by foliage application, plastic box (symbol K); settings: 320 g/ha, 3 weeks after application
How it was run: as §2

Avena fatua = assay: Test Example 4: herbicidal effect by soil treatment (symbol I)
How it was run: as §1

Alopecurus myosuroides = assay: Test Example 4: herbicidal effect by soil treatment (symbol J)
How it was run: as §1

rapeseed = assay: Test Example 4: effect on crop by soil treatment (symbol g)
How it was run: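 Seeds were sown in spots on sterilized diluvial soil in a plastic box and covered with about 1.5 cm of soil. Plants were then grown in a greenhouse at 25° C. to 30° C.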

[3] = test system: Echinochloa crus-galli var. crus-galli; assay: Test Example 4: herbicidal effect by soil treatment (symbol H)
How it was run: as §1

Veronica persica [4] = assay: Test Example 5: herbicidal effect by foliage application, plastic box (symbol R); settings: 320 g/ha, 3 weeks after application
How it was run: as §2

Lolium multiflorum Lam. [5] = assay: Test Example 4: herbicidal effect by soil treatment (symbol K)
How it was run: as §1

[6] = test system: Echinochloa oryzacola Vasing.; assay: Test Example 1: herbicidal activity, application before weed generation in submerged conditions (symbol A); settings: application herbicide amount 320 g/ha
How it was run: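 0–5 visual score, 3 wk post-application. Submerged pots, alluvial soil, water 4 cm; seeds sown mixed, rice at 2.5 leaves transplanted. Emulsion diluted to predetermined dose, applied to water surface at sowing. 25–30 °C greenhouse.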

Amaranthus retroflexus = assay: Test Example 5: herbicidal effect by foliage application, plastic box (symbol N); settings: 320 g/ha, 3 weeks after application
How it was run: as §2

[7] = test system: Echinochloa oryzacola Vasing.; assay: Test Example 2: herbicidal activity, application during weed generation in submerged conditions (symbol A); settings: Table 23; application herbicide amount 320 g/ha; grade 0-5 by criteria of Test Example 1
How it was run: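 Paddy pot test, submerged (4 cm water), alluvial soil, mixed sowing; greenhouse 25–30° C. Emulsion formulation diluted to predetermined rate, applied onto floodwater at 1–2 leaf stage. Visual herbicidal rating at 3 wk post-treatment.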

corn = assay: Test Example 4: effect on crop by soil treatment (symbol c)
How it was run: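 Grown at 25° C. to 30° C. in a greenhouse, the crops came from seed sown spot-wise in sterilized diluvial soil under roughly 1.5 cm of covering soil.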

Galium spurium = assay: Test Example 5: herbicidal effect by foliage application, plastic box (symbol Q); settings: 320 g/ha, 3 weeks after application
How it was run: as §2

rice plant = assay: Test Example 5: effect on crop by foliage application, plastic box (symbol b); settings: 320 g/ha, 3 weeks after application
How it was run: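 Sterilized diluvial soil, plastic box (21 × 13 × 7 cm); spot sowing, ~1.5 cm soil cover; greenhouse 25–30° C.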

Stellaria media = assay: Test Example 5: herbicidal effect by foliage application, plastic box (symbol P); settings: 320 g/ha, 3 weeks after application
How it was run: as §2

[8] = application herbicide amount 320 g/ha

Row | Compound | Herbicidal effect grade, A: Echinochloa oryzacola Vasing. [6] | Herbicidal effect grade, A: Echinochloa oryzacola Vasing. [7] | R (Veronica persica) herbicidal effect grade (Veronica persica [1]; [8]) | G: Setaria viridis, herbicidal effect grade (Setaria viridis) | M: Abutilon theophrasti, herbicidal effect grade (Abutilon theophrasti) | K: Lolium multiflorum Lam., herbicidal effect grade (Lolium multiflorum Lam. [2]) | I (Avena fatua) herbicidal effect grade (Avena fatua; [8]) | J (Alopecurus myosuroides) herbicidal effect grade (Alopecurus myosuroides; [8]) | g (rapeseed) effect on crop grade (rapeseed; [8]) | H (Echinochloa crus-galli var. crus-galli) herbicidal effect grade [3, 8] | R: Veronica persica, herbicidal effect grade (Veronica persica [4]) | K (Lolium multiflorum Lam.) herbicidal effect grade (Lolium multiflorum Lam. [5]; [8]) | N: Amaranthus retroflexus, herbicidal effect grade (Amaranthus retroflexus) | c (corn) effect on crop grade (corn; [8]) | Q: Galium spurium, herbicidal effect grade (Galium spurium) | b: directly sowed rice plant, effect on crop grade (rice plant) | P: Stellaria media, herbicidal effect grade (Stellaria media) | other results
1 | CON=C(C)CC1CC(OC(=O)COCc2ccccc2)=C(c2c(C)cc(C)cc2C)C1=O (centres unmarked) [1-094] | 5 (Herbicidal ratio of 90% or more (almost completely withered)) | 5 (Herbicidal ratio of 90% or more (almost completely withered)) | – | – | – | – | – | – | – | – | – | – | – | – | – | – | – | R: Veronica persica, herbicidal effect grade (Veronica persica [1]; 320 g/ha): 0 (Herbicidal ratio of 5% or lower (almost no effect)); G: Setaria viridis, herbicidal effect (criteria 0-5) (Setaria viridis): 5 (Herbicidal ratio of 90% or more (almost completely withered)); M: Abutilon theophrasti, herbicidal effect (criteria 0-5) (Abutilon theophrasti): 4 (Herbicidal ratio of 70% or higher and lower than 90%); K: Lolium multiflorum Lam., herbicidal effect (criteria 0-5) (Lolium multiflorum Lam. [2]): 5 (Herbicidal ratio of 90% or more (almost completely withered)); I: Avena fatua, herbicidal effect grade (Avena fatua; 320 g/ha): 3 (Herbicidal ratio of 40% or higher and lower than 70%); J: Alopecurus myosuroides, herbicidal effect grade (Alopecurus myosuroides; 320 g/ha): 5 (Herbicidal ratio of 90% or more (almost completely withered)); g: rapeseed, effect grade on crop (rapeseed; 320 g/ha): 4 (Herbicidal ratio of 70% or higher and lower than 90%); H: Echinochloa crus-galli var. crus-galli, herbicidal effect grade ([3]; 320 g/ha): 5 (Herbicidal ratio of 90% or more (almost completely withered)); R: Veronica persica, herbicidal effect (criteria 0-5) (Veronica persica [4]): 3 (Herbicidal ratio of 40% or higher and lower than 70%); K: Lolium multiflorum Lam., herbicidal effect grade (Lolium multiflorum Lam. [5]; 320 g/ha): 5 (Herbicidal ratio of 90% or more (almost completely withered)); N: Amaranthus retroflexus, herbicidal effect (criteria 0-5) (Amaranthus retroflexus): 2 (Herbicidal ratio of 20% or higher and lower than 40%); c: corn, effect grade on crop (corn; 320 g/ha): 4 (Herbicidal ratio of 70% or higher and lower than 90%); Q: Galium spurium, herbicidal effect (criteria 0-5) (Galium spurium): 0 (Herbicidal ratio of 5% or lower (almost no effect)); b: directly sowed rice plant, effect on crop (criteria 0-5) (rice plant): 5 (Herbicidal ratio of 90% or more (almost completely withered)); P: Stellaria media, herbicidal effect (criteria 0-5) (Stellaria media): 3 (Herbicidal ratio of 40% or higher and lower than 70%)
2 | CON=C(CC1CC1)CC1CC(O)=C(c2c(C)cc(C)cc2C)C1=O (centres unmarked) [1-070] | 4 (Herbicidal ratio of 70% or higher and lower than 90%) | 4 (Herbicidal ratio of 70% or higher and lower than 90%) | 0 (Herbicidal ratio of 5% or lower (almost no effect)) | 5 (Herbicidal ratio of 90% or more (almost completely withered)) | 0 (Herbicidal ratio of 5% or lower (almost no effect)) | 5 (Herbicidal ratio of 90% or more (almost completely withered)) | 0 (Herbicidal ratio of 5% or lower (almost no effect)) | 5 (Herbicidal ratio of 90% or more (almost completely withered)) | 0 (Herbicidal ratio of 5% or lower (almost no effect)) | 4 (Herbicidal ratio of 70% or higher and lower than 90%) | 2 (Herbicidal ratio of 20% or higher and lower than 40%) | 5 (Herbicidal ratio of 90% or more (almost completely withered)) | 0 (Herbicidal ratio of 5% or lower (almost no effect)) | 1 (Herbicidal ratio of 5% or higher and lower than 20%) | 2 (Herbicidal ratio of 20% or higher and lower than 40%) | 5 (Herbicidal ratio of 90% or more (almost completely withered)) | 0 (Herbicidal ratio of 5% or lower (almost no effect)) | –
3 | CC#Cc1cc(C)c(C2=C(OC(=O)COc3ccccc3)CC(CC(=NOC)C(C)C)C2=O)c(C)c1 (centres unmarked) [9-003] | 5 (Herbicidal ratio of 90% or more (almost completely withered)) | 5 (Herbicidal ratio of 90% or more (almost completely withered)) | – | 5 (Herbicidal ratio of 90% or more (almost completely withered)) | 4 (Herbicidal ratio of 70% or higher and lower than 90%) | 5 (Herbicidal ratio of 90% or more (almost completely withered)) | – | – | – | – | 4 (Herbicidal ratio of 70% or higher and lower than 90%) | – | 0 (Herbicidal ratio of 5% or lower (almost no effect)) | – | 0 (Herbicidal ratio of 5% or lower (almost no effect)) | 5 (Herbicidal ratio of 90% or more (almost completely withered)) | 3 (Herbicidal ratio of 40% or higher and lower than 70%) | Herbicidal effect grade, R: Veronica persica (Veronica persica [1]; [8]): 0 (Herbicidal ratio of 5% or lower (almost no effect)); Herbicidal effect grade, I: Avena fatua (Avena fatua; [8]): 3 (Herbicidal ratio of 40% or higher and lower than 70%); Herbicidal effect grade, J: Alopecurus myosuroides (Alopecurus myosuroides; [8]): 5 (Herbicidal ratio of 90% or more (almost completely withered)); Effect on crop grade, g: rapeseed (rapeseed; [8]): 5 (Herbicidal ratio of 90% or more (almost completely withered)); Herbicidal effect grade, H: Echinochloa crus-galli var. crus-galli [3, 8]: 5 (Herbicidal ratio of 90% or more (almost completely withered)); Herbicidal effect grade, K: Lolium multiflorum Lam. (Lolium multiflorum Lam. [5]; [8]): 5 (Herbicidal ratio of 90% or more (almost completely withered)); Effect on crop grade, c: corn (corn; [8]): 5 (Herbicidal ratio of 90% or more (almost completely withered))
4 | COCCON=C(C)CC1CC(O)=C(c2c(C)cc(C)cc2C)C1=O (centres unmarked) [1-041] | 5 (Herbicidal ratio of 90% or more (almost completely withered)) | 5 (Herbicidal ratio of 90% or more (almost completely withered)) | 3 (Herbicidal ratio of 40% or higher and lower than 70%) | 5 (Herbicidal ratio of 90% or more (almost completely withered)) | 4 (Herbicidal ratio of 70% or higher and lower than 90%) | 5 (Herbicidal ratio of 90% or more (almost completely withered)) | 5 (Herbicidal ratio of 90% or more (almost completely withered)) | 5 (Herbicidal ratio of 90% or more (almost completely withered)) | 4 (Herbicidal ratio of 70% or higher and lower than 90%) | 5 (Herbicidal ratio of 90% or more (almost completely withered)) | 3 (Herbicidal ratio of 40% or higher and lower than 70%) | 5 (Herbicidal ratio of 90% or more (almost completely withered)) | 3 (Herbicidal ratio of 40% or higher and lower than 70%) | 4 (Herbicidal ratio of 70% or higher and lower than 90%) | 3 (Herbicidal ratio of 40% or higher and lower than 70%) | 5 (Herbicidal ratio of 90% or more (almost completely withered)) | 3 (Herbicidal ratio of 40% or higher and lower than 70%) | –
